Results as given in ChEMBL document CHEMBL1152058, “Configurational variants of hydroxyphenylkainoid: their potent depolarizing activities in the rat central nervous system” (1992).

organism: Rattus norvegicus; experiment: Compound was evaluated for its depolarizing activity in the isolated rat spinal cord and the relative potency was determined; assay type: functional

Structure (SMILES) | Relative potency
O=C(O)C[C@H]1[C@@H](C(=O)O)NC[C@H]1c1ccccc1O | 0.5
O=C(O)C[C@H]1[C@@H](C(=O)O)NC[C@@H]1c1ccccc1O | 2
O=C(O)C[C@@H]1[C@@H](C(=O)O)NC[C@@H]1c1ccccc1O | 300
O=C(O)C[C@@H]1[C@@H](C(=O)O)NC[C@H]1c1ccccc1O | 0.5
N[C@@H](CCC(=O)O)C(=O)O [GLUTAMIC ACID] | 1
C=C(C)[C@H]1CN[C@H](C(=O)O)[C@H]1CC(=O)O [KAINIC ACID] | 150
